The structures appear in SMILES notation.

These results are taken from US11814376B2, “Hepatitis b core protein modulators” (Assembly Biosciences, Inc., priority 2015, dated 2023).

One data set relates to AD38 cells. The experiment in a line: Viability of AD38 cells (Promega CellTiter-Glo). Format: cell-based. The note with it: 10 μM compound, 6 days, CellTiter-Glo luminescence normalized to DMSO control (100%). The method, boiled down: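 AD38 cells were seeded at 50,000/well on collagen-coated plates and treated with compound added as a 10× solution in 10% DMSO for 6 days at 37° C. Viability was measured by CellTiter-Glo luminescence in tetracycline-free medium with 2% FBS and 1% DMSO, and expressed as percent of DMSO control.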
On the technique in general: ATP-based viability assays read luminescence as a measure of living cells.

Data set [1] has as its system HBV viral load in AD38 cells. Description: Viral load production in AD38 cells, quantitative PCR of the core sequence in supernatant. The note with it: Hepatitis B virus, 144 h, 10 μM compound, 6 days at 37° C., supernatant qPCR, relative to DMSO control; read-out: AD38 Viral Load (%) (VL with cmpd/VL in DMSO control) at 10 μM. Format: cell-based. A general note: In qPCR the cycle at which signal appears reflects the starting amount.

For `Cc1cc(-c2ncc(CNC(=O)c3ccc4c(c3)NC(=O)c3ccccc3S4(=O)=O)s2)cc(C)c1O` [compound 1806, N-((2-(4-hydroxy-3,5-dimethylphenyl)thiazol-5-yl)methyl)-11-oxo-10, 11-dihydrodibenzo [b, f] [1, 4] thiazepine-8-carboxamide 5,5-dioxide], the “AD38 Viability Normalized Result (cmpd/DMSO %) at 10 μM” value in the data set with AD38 cells came to 105%. Also, in data set [1], the activity at 10 µM came to 0.8%.

In the case of `N#Cc1ccc(-c2ncc(CNC(=O)c3ccc4c(c3)NC(=O)c3ccccc3S4(=O)=O)s2)c(F)c1` [compound 1814], in the data set with AD38 cells, the “AD38 Viability Normalized Result (cmpd/DMSO %) at 10 μM” value is 92%. Besides, in data set [1], the activity at 10 µM was 0.9%.

Consider `N#Cc1ccc(-c2ncc(CNC(=O)c3ccc4c(c3)NC(=O)c3ccccc3S4(=O)=O)s2)cc1F` [compound 1815], for which the “AD38 Viability Normalized Result (cmpd/DMSO %) at 10 μM” value with AD38 cells was 88%. Further, in data set [1], the activity at 10 µM amounted to 0.2%.

For `N#Cc1ccc(-c2ncc(CNC(=O)c3ccc4c(c3)NC(=O)c3ccccc3S4(=O)=O)s2)c(Cl)c1` [compound 1816], the “AD38 Viability Normalized Result (cmpd/DMSO %) at 10 μM” value in the data set on AD38 cells was 82%. Moreover, the activity at 10 µM in data set [1] was 0.2%.

`N#Cc1ccc(-c2ncc(CNC(=O)c3ccc4c(c3)NC(=O)c3ccccc3S4(=O)=O)s2)cc1Cl` [compound 1817]: the “AD38 Viability Normalized Result (cmpd/DMSO %) at 10 μM” value in the data set with AD38 cells stood at 97%. Moreover, in data set [1], the activity at 10 µM is 0.3%.

As to `O=C(NCc1cnc(-c2ccc3ncccc3c2)s1)c1ccc2c(c1)NC(=O)c1ccccc1S2(=O)=O` [compound 1819], in the data set on AD38 cells, the “AD38 Viability Normalized Result (cmpd/DMSO %) at 10 μM” value is 118%. Also, the activity at 10 µM in data set [1] amounted to 0.5%.

For `O=C(NCc1cnc(-c2ccc3cnccc3c2)s1)c1ccc2c(c1)NC(=O)c1ccccc1S2(=O)=O` [compound 1820], in the data set with AD38 cells, the “AD38 Viability Normalized Result (cmpd/DMSO %) at 10 μM” value came to 105%. In addition, the activity at 10 µM in data set [1] turned out to be 3.2%.

For the compound `O=C1Cc2cc(-c3ncc(CNC(=O)c4ccc5c(c4)NC(=O)c4ccccc4S5(=O)=O)s3)ccc2N1` [compound 1821], the “AD38 Viability Normalized Result (cmpd/DMSO %) at 10 μM” value in the data set with AD38 cells was found to be 102%. Moreover, in data set [1], the activity at 10 µM came to 0.5%.

Regarding `COc1cccc(Cc2ncc(CNC(=O)c3ccc4c(c3)NC(=O)c3ccccc3S4(=O)=O)s2)c1` [compound 1822, N-((2-(3-methoxybenzyl)thiazol-5-yl)methyl)-11-oxo-10, 11-dihydrodibenzo [b, f] [1, 4] thiazepine-8-carboxamide 5,5-dioxide], the “AD38 Viability Normalized Result (cmpd/DMSO %) at 10 μM” value in the data set with AD38 cells stood at 89%. Also, the activity at 10 µM in data set [1] is 1.5%.

On to `O=C(NCc1cnc(Cc2ccc(O)cc2)s1)c1ccc2c(c1)NC(=O)c1ccccc1S2(=O)=O` [compound 1823, N-((2-(4-hydroxybenzyl)thiazol-5-yl)methyl)-11-oxo-10, 11-dihydrodibenzo [b, f] [1, 4] thiazepine-8-carboxamide 5,5-dioxide], for which, in the data set on AD38 cells, the “AD38 Viability Normalized Result (cmpd/DMSO %) at 10 μM” value is 96%. Further, the activity at 10 µM in data set [1] was 5.2%.

Consider `N#Cc1ccc(-c2ncc(CNC(=O)c3ccc4c(c3)NC(=O)c3ccccc3O4)s2)c(F)c1` [compound 1826], for which the “AD38 Viability Normalized Result (cmpd/DMSO %) at 10 μM” value in the data set with AD38 cells worked out at 91%. In addition, in data set [1], the activity at 10 µM was 11.8%.

Turning to `O=C(NCc1cnc(-c2ccc3ncccc3c2)s1)c1ccc2c(c1)NC(=O)c1ccccc1O2` [compound 1831], in the data set with AD38 cells, the “AD38 Viability Normalized Result (cmpd/DMSO %) at 10 μM” value came to 112%. Further, the activity at 10 µM in data set [1] turned out to be 3.8%.

As for `O=C(NCc1cnc(-c2ccc3cnccc3c2)s1)c1ccc2c(c1)NC(=O)c1ccccc1O2` [compound 1832], in the data set on AD38 cells, the “AD38 Viability Normalized Result (cmpd/DMSO %) at 10 μM” value turned out to be 98%. Besides, in data set [1], the activity at 10 µM is 14.1%.

Consider `O=C1Cc2cc(-c3ncc(CNC(=O)c4ccc5c(c4)NC(=O)c4ccccc4O5)s3)ccc2N1` [compound 1833], for which the “AD38 Viability Normalized Result (cmpd/DMSO %) at 10 μM” value in the data set with AD38 cells was 102%. Further, in data set [1], the activity at 10 µM was determined as 67.4%.

Consider `O=C(NCc1cnc(Cc2ccc(O)cc2)s1)c1ccc2c(c1)NC(=O)c1ccccc1O2` [compound 1835, N-((2-(4-hydroxybenzyl)thiazol-5-yl)methyl)-11-oxo-10, 11-dihydrodibenzo [b, f] [1, 4] oxazepine-8-carboxamide], for which the “AD38 Viability Normalized Result (cmpd/DMSO %) at 10 μM” value in the data set with AD38 cells came to 94%. Further, the activity at 10 µM in data set [1] was 12.3%.

For `O=C(NCc1cnc(-c2ccccc2CO)s1)c1ccc2c(c1)NC(=O)c1ccccc1S2(=O)=O` [compound 1838], in the data set with AD38 cells, the “AD38 Viability Normalized Result (cmpd/DMSO %) at 10 μM” value was 113%. Besides, the activity at 10 µM in data set [1] was found to be 1.4%.

Turning to `O=C(NCc1cnc(-c2ccccc2CCO)s1)c1ccc2c(c1)NC(=O)c1ccccc1S2(=O)=O` [compound 1839, N-((2-(2-(2-hydroxyethyl)phenyl)thiazol-5-yl)methyl)-11-oxo-10, 11-dihydrodibenzo [b, f] [1, 4] thiazepine-8-carboxamide 5,5-dioxide], the “AD38 Viability Normalized Result (cmpd/DMSO %) at 10 μM” value with AD38 cells worked out at 96%. Moreover, the activity at 10 µM in data set [1] amounted to 6.6%.

`CC(C)(O)Cc1ccccc1-c1ncc(CNC(=O)c2ccc3c(c2)NC(=O)c2ccccc2S3(=O)=O)s1` [compound 1840]: the “AD38 Viability Normalized Result (cmpd/DMSO %) at 10 μM” value in the data set on AD38 cells was determined as 107%. The activity at 10 µM in data set [1] was 3.2%.

In the case of `Cl.NCc1ccccc1-c1ncc(CNC(=O)c2ccc3c(c2)NC(=O)c2ccccc2S3(=O)=O)s1` [compound 1841, N-((2-(2-(aminomethyl)phenyl)thiazol-5-yl)methyl)-11-oxo-10, 11-dihydrodibenzo [b, f] [1, 4] thiazepine-8-carboxamide 5,5-dioxide hydrochloride], in the data set with AD38 cells, the “AD38 Viability Normalized Result (cmpd/DMSO %) at 10 μM” value turned out to be 104%. The activity at 10 µM in data set [1] came to 9.1%.

With `Cl.NCCc1ccccc1-c1ncc(CNC(=O)c2ccc3c(c2)NC(=O)c2ccccc2S3(=O)=O)s1` [compound 1842, N-((2-(2-(2-aminoethyl)phenyl)thiazol-5-yl)methyl)-11-oxo-10, 11-dihydrodibenzo [b, f] [1, 4] thiazepine-8-carboxamide 5,5-dioxide hydrochloride], the “AD38 Viability Normalized Result (cmpd/DMSO %) at 10 μM” value in the data set on AD38 cells stood at 109%. Further, in data set [1], the activity at 10 µM was 46.5%.

Turning to `CS(=O)(=O)c1ccc(-c2ncc(CNC(=O)c3ccc4c(c3)NC(=O)c3ccccc3S4(=O)=O)s2)cc1` [compound 1855], in the data set with AD38 cells, the “AD38 Viability Normalized Result (cmpd/DMSO %) at 10 μM” value is given as 102%. Further, the activity at 10 µM in data set [1] is 2.5%.

As for `NS(=O)(=O)c1ccc(-c2ncc(CNC(=O)c3ccc4c(c3)NC(=O)c3ccccc3S4(=O)=O)s2)cc1` [compound 1856], in the data set on AD38 cells, the “AD38 Viability Normalized Result (cmpd/DMSO %) at 10 μM” value worked out at 96%. Besides, in data set [1], the activity at 10 µM was 1.3%.

Regarding `CS(=O)(=O)Nc1ccc(-c2ncc(CNC(=O)c3ccc4c(c3)NC(=O)c3ccccc3S4(=O)=O)s2)cc1` [compound 1857], in the data set on AD38 cells, the “AD38 Viability Normalized Result (cmpd/DMSO %) at 10 μM” value is listed as 107%. The activity at 10 µM in data set [1] was 1.5%.

As for `O=C(NCc1cnc(-c2ccc(N3CCCC3=O)cc2)s1)c1ccc2c(c1)NC(=O)c1ccccc1S2(=O)=O` [compound 1858], the “AD38 Viability Normalized Result (cmpd/DMSO %) at 10 μM” value with AD38 cells is given as 103%. Moreover, the activity at 10 µM in data set [1] came out at 0.7%.

On to `O=C(NCc1cnc(N2CCC(O)CC2)s1)c1ccc2c(c1)NC(=O)c1ccccc1S2(=O)=O` [compound 1859], for which, in the data set on AD38 cells, the “AD38 Viability Normalized Result (cmpd/DMSO %) at 10 μM” value is 89%. In addition, the activity at 10 µM in data set [1] is 2.7%.

With `O=C(NCc1cnc(N2CCS(=O)(=O)CC2)s1)c1ccc2c(c1)NC(=O)c1ccccc1S2(=O)=O` [compound 1860], the “AD38 Viability Normalized Result (cmpd/DMSO %) at 10 μM” value in the data set on AD38 cells amounted to 98%. Further, the activity at 10 µM in data set [1] was found to be 7.5%.

Take `CS(=O)(=O)c1ccc(-c2ncc(CNC(=O)c3ccc4c(c3)NC(=O)c3ccccc3O4)s2)cc1` [compound 1861]: the “AD38 Viability Normalized Result (cmpd/DMSO %) at 10 μM” value in the data set on AD38 cells is 94%. Besides, in data set [1], the activity at 10 µM amounted to 5.9%.

As for `NS(=O)(=O)c1ccc(-c2ncc(CNC(=O)c3ccc4c(c3)NC(=O)c3ccccc3O4)s2)cc1` [compound 1862], the “AD38 Viability Normalized Result (cmpd/DMSO %) at 10 μM” value in the data set on AD38 cells is reported as 107%. Also, in data set [1], the activity at 10 µM was found to be 19.9%.

For `CS(=O)(=O)Nc1ccc(-c2ncc(CNC(=O)c3ccc4c(c3)NC(=O)c3ccccc3O4)s2)cc1` [compound 1863], the “AD38 Viability Normalized Result (cmpd/DMSO %) at 10 μM” value in the data set with AD38 cells was 106%. Besides, in data set [1], the activity at 10 µM was found to be 9.4%.

`O=C(NCc1cnc(-c2ccc(N3CCCC3=O)cc2)s1)c1ccc2c(c1)NC(=O)c1ccccc1O2` [compound 1864]: the “AD38 Viability Normalized Result (cmpd/DMSO %) at 10 μM” value in the data set on AD38 cells was 93%. In addition, the activity at 10 µM in data set [1] was determined as 3%.

With `O=C(NCc1cnc(N2CCC(O)CC2)s1)c1ccc2c(c1)NC(=O)c1ccccc1O2` [compound 1865], in the data set on AD38 cells, the “AD38 Viability Normalized Result (cmpd/DMSO %) at 10 μM” value came to 94%. Further, the activity at 10 µM in data set [1] came to 1%.

`O=C(NCc1cnc(N2CCS(=O)(=O)CC2)s1)c1ccc2c(c1)NC(=O)c1ccccc1O2` [compound 1866]: the “AD38 Viability Normalized Result (cmpd/DMSO %) at 10 μM” value in the data set on AD38 cells came to 98%. Besides, the activity at 10 µM in data set [1] amounted to 2.9%.

For the compound `Cc1c(C(=O)NCc2cnc(-c3ccc(C#N)cc3)s2)ccc2c1NC(=O)c1ccccc1S2(=O)=O` [compound 1877], the “AD38 Viability Normalized Result (cmpd/DMSO %) at 10 μM” value in the data set with AD38 cells worked out at 96%. Moreover, in data set [1], the activity at 10 µM was 0.2%.

For the compound `Cc1c(C(=O)NCc2cnc(-c3ccc(C(N)=O)cc3)s2)ccc2c1NC(=O)c1ccccc1S2(=O)=O` [compound 1878, N-((2-(4-carbamoylphenyl)thiazol-5-yl)methyl)-9-methyl-11-oxo-10, 11-dihydrodibenzo [b, f] [1, 4] thiazepine-8-carboxamide 5,5-dioxide], in the data set on AD38 cells, the “AD38 Viability Normalized Result (cmpd/DMSO %) at 10 μM” value was determined as 103%. Moreover, the activity at 10 µM in data set [1] was found to be 1%.

Consider `O=C(NCc1cnc(-c2ccc(O)cn2)s1)c1ccc2c(c1)NC(=O)c1ccccc1S2(=O)=O` [compound 1879, N-((2-(5-hydroxypyridin-2-yl)thiazol-5-yl)methyl)-11-oxo-10, 11-dihydrodibenzo [b, f] [1, 4] thiazepine-8-carboxamide 5,5-dioxide], for which, in the data set on AD38 cells, the “AD38 Viability Normalized Result (cmpd/DMSO %) at 10 μM” value is on record as 104%. In addition, the activity at 10 µM in data set [1] came out at 7.2%.
